The source made the active and inactive calls. The calls are words filed in the database; no cut-off is given here.
Columns and labels:
[1] = target: Amyloid-beta precursor protein (Homo sapiens) (UniProt P05067); assay: Inhibition of amyloid beta (1 to 42) (unknown origin) aggregation at 20 uM by thioflavin T based fluorometric assay
[2] = target: Cholinesterase (Equus caballus, UniProt P81908)
Description: Inhibition of equine serum BuChE using S-butyrylthiocholine iodide as substrate incubated for 6 mins prior to substrate addition measured after 60 to 180 secs by Ellman's method

[3] = target: Acetylcholinesterase (Electrophorus electricus, UniProt O42275)
Description: Inhibition of electric eel AChE using acetylthiocholine iodide as substrate incubated for 6 mins prior to substrate addition measured after 60 to 180 secs by Ellman's method

[4] = Metal chelating activity of the compound assessed as formation of copper complex at 35 uM by UV-vis spectrometry; type: functional
[5] = Metal chelating activity of the compound assessed as formation of iron complex at 35 uM by UV-vis spectrometry; type: functional
[6] = target: Acetylcholinesterase (Electrophorus electricus) (UniProt O42275); assay: Ratio of galanthamine IC50 to compound IC50 for electric eel AChE
Acetylcholinesterase (Electrophorus electricus), sequence (O42275 24-633 limits assumed): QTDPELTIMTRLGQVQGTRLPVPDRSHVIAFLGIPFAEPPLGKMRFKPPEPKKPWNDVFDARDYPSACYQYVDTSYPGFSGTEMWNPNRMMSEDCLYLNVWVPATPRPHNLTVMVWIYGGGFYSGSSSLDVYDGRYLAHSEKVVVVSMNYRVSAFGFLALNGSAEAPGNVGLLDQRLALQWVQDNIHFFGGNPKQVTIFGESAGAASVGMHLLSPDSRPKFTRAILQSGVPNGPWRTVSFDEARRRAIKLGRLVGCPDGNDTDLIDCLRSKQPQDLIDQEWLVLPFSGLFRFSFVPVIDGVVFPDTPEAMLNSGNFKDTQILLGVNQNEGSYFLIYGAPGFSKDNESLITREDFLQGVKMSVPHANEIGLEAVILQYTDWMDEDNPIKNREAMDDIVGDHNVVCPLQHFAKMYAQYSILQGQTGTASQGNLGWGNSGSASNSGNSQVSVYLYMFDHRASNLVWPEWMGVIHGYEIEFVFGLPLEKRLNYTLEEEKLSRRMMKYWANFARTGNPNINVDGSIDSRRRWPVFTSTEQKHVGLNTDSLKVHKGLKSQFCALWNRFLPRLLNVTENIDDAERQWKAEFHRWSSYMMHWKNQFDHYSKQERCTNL

[7] = target: Acetylcholinesterase (Electrophorus electricus) (UniProt O42275); assay: Ratio of tacrine IC50 to compound IC50 for electric eel AChE
[8] = target: Acetylcholinesterase (Homo sapiens) (UniProt P22303); assay: Mixed inhibition of AChE (unknown origin) using ATC as substrate assessed as acetylcholine hydrolysis incubated 15 mins prior to substrate addition by Lineweaver-Burk plot analysis
Acetylcholinesterase (Homo sapiens), sequence (P22303 whole entry): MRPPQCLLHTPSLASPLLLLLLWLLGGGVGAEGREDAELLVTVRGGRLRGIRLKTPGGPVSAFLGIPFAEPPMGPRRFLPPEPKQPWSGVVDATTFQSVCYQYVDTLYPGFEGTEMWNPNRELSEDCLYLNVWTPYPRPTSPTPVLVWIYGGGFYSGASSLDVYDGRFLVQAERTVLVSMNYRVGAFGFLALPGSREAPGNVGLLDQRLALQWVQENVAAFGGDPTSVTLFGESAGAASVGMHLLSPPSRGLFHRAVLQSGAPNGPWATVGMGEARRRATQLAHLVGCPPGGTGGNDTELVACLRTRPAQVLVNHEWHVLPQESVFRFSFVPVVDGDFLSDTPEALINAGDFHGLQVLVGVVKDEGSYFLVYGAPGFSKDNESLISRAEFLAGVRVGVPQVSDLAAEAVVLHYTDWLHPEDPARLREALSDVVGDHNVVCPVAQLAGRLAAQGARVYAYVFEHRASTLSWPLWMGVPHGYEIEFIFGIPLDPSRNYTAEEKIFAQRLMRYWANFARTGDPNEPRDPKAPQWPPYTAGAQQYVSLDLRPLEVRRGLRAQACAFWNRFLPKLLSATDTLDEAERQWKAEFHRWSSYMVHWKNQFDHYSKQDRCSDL

Amyloid-beta precursor protein (Homo sapiens), sequence (P05067 whole entry): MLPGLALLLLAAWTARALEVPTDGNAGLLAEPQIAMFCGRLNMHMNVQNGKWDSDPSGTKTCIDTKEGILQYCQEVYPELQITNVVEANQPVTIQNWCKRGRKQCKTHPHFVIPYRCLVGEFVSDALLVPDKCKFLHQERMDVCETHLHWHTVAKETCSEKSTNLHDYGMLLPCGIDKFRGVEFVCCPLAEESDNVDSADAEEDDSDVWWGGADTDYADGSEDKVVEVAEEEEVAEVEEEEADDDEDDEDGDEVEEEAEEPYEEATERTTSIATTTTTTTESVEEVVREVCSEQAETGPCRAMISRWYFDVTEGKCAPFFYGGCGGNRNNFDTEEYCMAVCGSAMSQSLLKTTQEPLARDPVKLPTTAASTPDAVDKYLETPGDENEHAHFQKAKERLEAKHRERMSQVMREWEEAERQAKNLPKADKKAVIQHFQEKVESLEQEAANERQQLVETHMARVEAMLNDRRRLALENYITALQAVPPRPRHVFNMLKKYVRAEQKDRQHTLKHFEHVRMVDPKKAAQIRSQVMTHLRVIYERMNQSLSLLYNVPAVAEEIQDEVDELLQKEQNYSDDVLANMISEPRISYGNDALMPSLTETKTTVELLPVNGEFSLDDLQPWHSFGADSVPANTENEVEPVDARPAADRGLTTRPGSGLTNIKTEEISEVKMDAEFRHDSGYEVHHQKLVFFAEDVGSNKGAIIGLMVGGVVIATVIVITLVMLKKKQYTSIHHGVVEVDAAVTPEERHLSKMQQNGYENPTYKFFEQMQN
Acetylcholinesterase, sequence (O42275 whole entry): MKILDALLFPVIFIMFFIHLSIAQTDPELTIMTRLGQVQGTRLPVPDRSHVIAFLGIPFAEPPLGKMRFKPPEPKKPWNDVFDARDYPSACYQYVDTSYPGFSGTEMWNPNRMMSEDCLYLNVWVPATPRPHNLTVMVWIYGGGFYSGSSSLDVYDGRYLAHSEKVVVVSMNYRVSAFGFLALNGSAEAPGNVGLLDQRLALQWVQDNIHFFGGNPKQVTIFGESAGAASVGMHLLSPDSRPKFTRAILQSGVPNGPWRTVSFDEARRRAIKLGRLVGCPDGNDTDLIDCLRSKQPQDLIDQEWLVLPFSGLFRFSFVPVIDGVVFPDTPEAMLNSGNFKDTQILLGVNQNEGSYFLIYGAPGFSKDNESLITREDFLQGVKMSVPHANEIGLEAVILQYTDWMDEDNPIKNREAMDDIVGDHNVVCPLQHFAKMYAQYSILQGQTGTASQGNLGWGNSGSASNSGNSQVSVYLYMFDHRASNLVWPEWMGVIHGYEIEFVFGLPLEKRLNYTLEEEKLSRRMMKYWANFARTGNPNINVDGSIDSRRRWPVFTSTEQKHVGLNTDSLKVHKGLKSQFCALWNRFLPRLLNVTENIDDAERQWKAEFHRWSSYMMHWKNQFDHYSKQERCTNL
Cholinesterase, sequence (P81908 whole entry): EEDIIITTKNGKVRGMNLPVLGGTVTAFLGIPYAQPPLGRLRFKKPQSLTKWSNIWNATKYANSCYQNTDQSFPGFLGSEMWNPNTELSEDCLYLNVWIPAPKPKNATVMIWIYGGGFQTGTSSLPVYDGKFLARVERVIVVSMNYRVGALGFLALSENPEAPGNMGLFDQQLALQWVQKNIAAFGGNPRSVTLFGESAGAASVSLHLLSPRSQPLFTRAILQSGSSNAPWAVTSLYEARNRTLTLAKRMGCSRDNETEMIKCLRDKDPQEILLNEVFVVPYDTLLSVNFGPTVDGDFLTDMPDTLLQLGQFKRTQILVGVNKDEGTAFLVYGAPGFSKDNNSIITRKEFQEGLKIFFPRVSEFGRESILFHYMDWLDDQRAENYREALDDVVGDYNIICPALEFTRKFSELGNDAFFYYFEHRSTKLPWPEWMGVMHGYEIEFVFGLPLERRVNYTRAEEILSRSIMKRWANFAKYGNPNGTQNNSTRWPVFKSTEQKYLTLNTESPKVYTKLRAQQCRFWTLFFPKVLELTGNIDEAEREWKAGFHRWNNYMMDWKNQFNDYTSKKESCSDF

| SMILES | inhibition [1] [%] | IC50 [2] [nM] | IC50 [3] [nM] | Activity [4] | Activity [5] | Ratio IC50 [6] | Ratio IC50 [7] | inhibition [8] |
| --- | --- | --- | --- | --- | --- | --- | --- | --- |
| Cc1c(OCCCCCN2CCOCC2)ccc2c(=O)cc(-c3ccccc3)oc12 | 24.6 | > 100000 | 8630 | – | – | – | – | – |
| CCN(CC)CCCCCOc1ccc2c(=O)cc(-c3ccccc3)oc2c1C | 40.9 | > 100000 | 264 | – | – | – | – | – |
| Cc1c(OCCCCN2CCCCC2C)ccc2c(=O)cc(-c3ccccc3)oc12 (stereo unspecified) | 37.3 | > 100000 | 225 | – | – | – | – | – |
| Cc1c(OCCCCN2CCC(O)CC2)ccc2c(=O)cc(-c3ccccc3)oc12 | 22.1 | > 100000 | 607 | – | – | – | – | – |
| COC(=O)[C@@H]1CCCN1CCCCOc1ccc2c(=O)cc(-c3ccccc3)oc2c1C | – | 3820 | 25300 | – | – | – | – | – |
| Cc1c(OCCCCCN2CCCCC2)ccc2c(=O)cc(-c3ccccc3)oc12 | 41.7 | 1410 | 329 | – | – | – | – | – |
| Cc1c(OCCCCCN(C)C)ccc2c(=O)cc(-c3ccccc3)oc12 | 37.9 | 2540 | 210 | – | – | – | – | – |
| Cc1c(OCCCCN2CCOCC2)ccc2c(=O)cc(-c3ccccc3)oc12 | 20.4 | > 100000 | 2880 | – | – | – | – | – |
| COC(=O)[C@@H]1CCCN1CCCCCOc1ccc2c(=O)cc(-c3ccccc3)oc2c1C | – | 3930 | 19600 | – | – | – | – | – |
| Cc1c(OCCCCCN2CCC(O)CC2)ccc2c(=O)cc(-c3ccccc3)oc12 | 37.4 | 4850 | 604 | – | – | – | – | – |
| Cc1c(OCCCCCCN2CCC(O)CC2)ccc2c(=O)cc(-c3ccccc3)oc12 | 39 | 3930 | 3150 | – | – | – | – | – |
| Cc1c(OCCN2CCC(O)CC2)ccc2c(=O)cc(-c3ccccc3)oc12 | 26.9 | 3210 | 1830 | – | – | – | – | – |
| Cc1c(OCCCCN2CCN(C)CC2)ccc2c(=O)cc(-c3ccccc3)oc12 | 31.1 | 5750 | 1660 | – | – | – | – | – |
| CCN(CC)CCCCOc1ccc2c(=O)cc(-c3ccccc3)oc2c1C | 39 | 4820 | 130 | Active | Active | 20 | 2 | Active |
| Cc1c(OCCCCN(C)C)ccc2c(=O)cc(-c3ccccc3)oc12 | 34.3 | > 100000 | 328 | – | – | – | – | – |
| Cc1c(OCCCCCN2CCCCC2C)ccc2c(=O)cc(-c3ccccc3)oc12 (stereo unspecified) | 36.7 | 2770 | 216 | – | – | – | – | – |
| Cc1c(OCCCN2CCCC2)ccc2c(=O)cc(-c3ccccc3)oc12 | 27.1 | 2780 | 952 | – | – | – | – | – |
| Cc1c(OCCCCCCN2CCCCC2C)ccc2c(=O)cc(-c3ccccc3)oc12 (stereo unspecified) | 43.2 | 3740 | 1890 | – | – | – | – | – |
| Cc1c(OCCN2CCCCC2C)ccc2c(=O)cc(-c3ccccc3)oc12 (stereo unspecified) | 30.5 | > 100000 | 2100 | – | – | – | – | – |
| Cc1c(OCCCCN2CCCCC2)ccc2c(=O)cc(-c3ccccc3)oc12 | 37.5 | > 100000 | 234 | – | – | – | – | – |
| Cc1c(OCCCCCN2CCCC2)ccc2c(=O)cc(-c3ccccc3)oc12 | 39.3 | 1910 | 243 | – | – | – | – | – |
| Cc1c(O)ccc2c(=O)cc(-c3ccccc3)oc12 | – | > 100000 | 87100 | – | – | – | – | – |
| Cc1c(OCCCCCCN2CCCC2)ccc2c(=O)cc(-c3ccccc3)oc12 | 38.1 | 3280 | 764 | – | – | – | – | – |
| Cc1c(OCCCCN2CCCC2)ccc2c(=O)cc(-c3ccccc3)oc12 | 21.8 | 5700 | 238 | – | – | – | – | – |
| Cc1c(OCCCCCN2CCN(C)CC2)ccc2c(=O)cc(-c3ccccc3)oc12 | 39.9 | 4870 | 1870 | – | – | – | – | – |
| Cc1c(OCCCN2CCCCC2C)ccc2c(=O)cc(-c3ccccc3)oc12 (stereo unspecified) | 41.7 | 5840 | 590 | – | – | – | – | – |
| Cc1c(OCCCN2CCC(O)CC2)ccc2c(=O)cc(-c3ccccc3)oc12 | 21.4 | 4120 | 2940 | – | – | – | – | – |
| Cc1c(OCCN2CCCC2)ccc2c(=O)cc(-c3ccccc3)oc12 | 42 | 2710 | 2040 | – | – | – | – | – |

From ChEMBL document CHEMBL2390956, “Design, synthesis and evaluation of flavonoid derivatives as potential multifunctional acetylcholinesterase inhibitors against Alzheimer's disease” (Bioorg Med Chem Lett, 2013)
